Test results published in ChEMBL document CHEMBL1138333, “Discovery of the first nonpeptidic, small-molecule, highly selective somatostatin receptor subtype 5 antagonists: a chemogenomics approach” (J Med Chem, 2007).
≈ marks a conversion by molar mass, not a printed value.

Key:
[1] = biological target: T1, Somatostatin receptor type 5 (Homo sapiens, UniProt P35346); assay: Displacement of [125I]11-Tyr somatostatin-14 from human SST5R expressed in CHO cells; format: cell-based
[2] = biological target: Somatostatin receptor type 1 (Homo sapiens, UniProt P30872); assay: Binding affinity to human SST1R
[3] = biological target: Somatostatin receptor type 2 (Homo sapiens, UniProt P30874); assay: Binding affinity to human SST2R
[4] = biological target: Somatostatin receptor type 3 (Homo sapiens, UniProt P32745); assay: Binding affinity to human SST3R
[5] = biological target: Somatostatin receptor type 4 (Homo sapiens, UniProt P31391); assay: Binding affinity to human SST4R
[6] = biological target: Voltage-gated inwardly rectifying potassium channel KCNH2 (Homo sapiens, UniProt Q12809); assay: Inhibition of hERG channel; format: toxicity
[7] = biological target: T1, Somatostatin receptor type 5; assay: Antagonist activity at human SST5R expressed in CHO cells assessed as reversal of somatostatin-14 induced cAMP response; format: functional, cell-based
[8] = Solubility at pH 6.5 by lyophilisation solubility assay; format: physicochemical; conditions: buffer
[9] = Distribution coefficient, log D at pH 7.4; format: physicochemical; conditions: octanol/water
[10] = Passive membrane permeability by PAMPA; format: ADME; conditions: read-out: permeability
Histamine H1 receptor = Histamine H1 receptor (Homo sapiens, UniProt P35367); assay: Binding affinity to histamine H1 receptor
Chain of Histamine H1 receptor (P35367 whole entry): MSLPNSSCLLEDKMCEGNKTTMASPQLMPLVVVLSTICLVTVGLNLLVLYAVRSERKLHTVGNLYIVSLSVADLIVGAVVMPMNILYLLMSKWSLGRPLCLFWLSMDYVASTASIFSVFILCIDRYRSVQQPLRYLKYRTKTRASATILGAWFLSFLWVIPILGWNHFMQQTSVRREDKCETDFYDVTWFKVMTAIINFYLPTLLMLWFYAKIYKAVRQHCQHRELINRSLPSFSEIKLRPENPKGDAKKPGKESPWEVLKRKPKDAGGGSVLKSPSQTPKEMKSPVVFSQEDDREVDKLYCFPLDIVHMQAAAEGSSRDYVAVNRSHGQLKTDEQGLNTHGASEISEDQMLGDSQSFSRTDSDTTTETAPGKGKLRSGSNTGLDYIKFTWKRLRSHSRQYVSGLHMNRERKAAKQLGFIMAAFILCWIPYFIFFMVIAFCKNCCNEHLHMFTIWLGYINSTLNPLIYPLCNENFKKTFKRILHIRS

T1 sequence (P35346 whole entry): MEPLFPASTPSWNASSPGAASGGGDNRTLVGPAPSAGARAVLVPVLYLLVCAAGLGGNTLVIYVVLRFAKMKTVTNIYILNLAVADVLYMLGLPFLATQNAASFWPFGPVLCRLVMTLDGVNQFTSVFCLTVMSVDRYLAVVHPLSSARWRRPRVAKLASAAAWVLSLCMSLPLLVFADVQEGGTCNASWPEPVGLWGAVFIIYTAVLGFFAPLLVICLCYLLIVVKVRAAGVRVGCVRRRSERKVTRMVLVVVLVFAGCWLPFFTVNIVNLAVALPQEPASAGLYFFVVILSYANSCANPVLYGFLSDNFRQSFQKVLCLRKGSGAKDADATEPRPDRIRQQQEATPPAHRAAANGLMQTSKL
Chain of Voltage-gated inwardly rectifying potassium channel KCNH2 (Q12809 whole entry): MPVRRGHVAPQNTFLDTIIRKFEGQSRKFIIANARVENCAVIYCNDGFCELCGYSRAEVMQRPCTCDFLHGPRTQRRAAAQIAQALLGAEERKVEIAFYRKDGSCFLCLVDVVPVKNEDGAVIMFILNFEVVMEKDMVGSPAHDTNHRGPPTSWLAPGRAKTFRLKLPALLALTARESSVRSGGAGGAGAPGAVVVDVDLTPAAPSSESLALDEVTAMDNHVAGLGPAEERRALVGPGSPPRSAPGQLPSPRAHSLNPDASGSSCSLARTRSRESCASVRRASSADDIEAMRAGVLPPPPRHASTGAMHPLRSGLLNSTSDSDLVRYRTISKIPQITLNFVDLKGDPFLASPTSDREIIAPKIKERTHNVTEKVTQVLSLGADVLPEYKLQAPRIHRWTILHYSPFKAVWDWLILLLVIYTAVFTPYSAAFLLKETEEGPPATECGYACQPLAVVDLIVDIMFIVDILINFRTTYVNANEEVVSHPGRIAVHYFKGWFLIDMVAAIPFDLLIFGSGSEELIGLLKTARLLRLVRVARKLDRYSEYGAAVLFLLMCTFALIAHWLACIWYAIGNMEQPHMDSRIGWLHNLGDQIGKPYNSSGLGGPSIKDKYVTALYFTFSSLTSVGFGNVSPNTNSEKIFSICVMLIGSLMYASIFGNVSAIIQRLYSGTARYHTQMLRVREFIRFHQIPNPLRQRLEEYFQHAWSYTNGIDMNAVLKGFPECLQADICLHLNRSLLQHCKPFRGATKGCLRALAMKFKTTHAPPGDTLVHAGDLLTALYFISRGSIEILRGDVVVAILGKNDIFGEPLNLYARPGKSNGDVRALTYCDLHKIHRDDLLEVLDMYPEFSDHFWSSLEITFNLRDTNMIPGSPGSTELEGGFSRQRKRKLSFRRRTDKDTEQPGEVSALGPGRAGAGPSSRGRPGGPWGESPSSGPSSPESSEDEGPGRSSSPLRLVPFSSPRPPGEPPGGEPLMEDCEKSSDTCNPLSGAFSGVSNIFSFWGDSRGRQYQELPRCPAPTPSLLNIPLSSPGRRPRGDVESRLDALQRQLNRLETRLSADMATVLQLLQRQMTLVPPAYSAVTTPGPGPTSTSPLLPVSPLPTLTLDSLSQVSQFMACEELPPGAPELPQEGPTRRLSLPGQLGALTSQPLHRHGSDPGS
Chain of Somatostatin receptor type 4 (P31391 whole entry): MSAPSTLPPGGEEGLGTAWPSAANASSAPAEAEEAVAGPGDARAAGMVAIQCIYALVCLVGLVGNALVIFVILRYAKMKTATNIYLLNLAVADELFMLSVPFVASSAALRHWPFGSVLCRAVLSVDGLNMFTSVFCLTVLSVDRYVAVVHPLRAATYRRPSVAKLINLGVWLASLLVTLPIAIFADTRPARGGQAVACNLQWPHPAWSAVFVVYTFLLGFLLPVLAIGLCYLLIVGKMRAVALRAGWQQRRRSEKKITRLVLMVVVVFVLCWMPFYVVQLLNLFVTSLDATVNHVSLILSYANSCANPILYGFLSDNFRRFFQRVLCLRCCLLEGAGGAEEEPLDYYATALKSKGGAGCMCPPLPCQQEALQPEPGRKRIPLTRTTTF
Chain of Somatostatin receptor type 3 (P32745 whole entry): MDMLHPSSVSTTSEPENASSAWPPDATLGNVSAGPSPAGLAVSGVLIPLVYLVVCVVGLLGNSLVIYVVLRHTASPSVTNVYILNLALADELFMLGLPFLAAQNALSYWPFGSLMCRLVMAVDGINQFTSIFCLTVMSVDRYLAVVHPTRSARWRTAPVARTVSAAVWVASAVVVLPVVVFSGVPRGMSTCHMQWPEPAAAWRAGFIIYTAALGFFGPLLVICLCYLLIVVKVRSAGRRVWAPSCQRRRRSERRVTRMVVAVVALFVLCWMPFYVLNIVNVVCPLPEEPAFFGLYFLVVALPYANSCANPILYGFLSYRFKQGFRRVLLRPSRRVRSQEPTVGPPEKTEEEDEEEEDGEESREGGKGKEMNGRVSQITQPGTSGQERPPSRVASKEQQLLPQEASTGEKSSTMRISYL
Chain of Somatostatin receptor type 1 (P30872 whole entry): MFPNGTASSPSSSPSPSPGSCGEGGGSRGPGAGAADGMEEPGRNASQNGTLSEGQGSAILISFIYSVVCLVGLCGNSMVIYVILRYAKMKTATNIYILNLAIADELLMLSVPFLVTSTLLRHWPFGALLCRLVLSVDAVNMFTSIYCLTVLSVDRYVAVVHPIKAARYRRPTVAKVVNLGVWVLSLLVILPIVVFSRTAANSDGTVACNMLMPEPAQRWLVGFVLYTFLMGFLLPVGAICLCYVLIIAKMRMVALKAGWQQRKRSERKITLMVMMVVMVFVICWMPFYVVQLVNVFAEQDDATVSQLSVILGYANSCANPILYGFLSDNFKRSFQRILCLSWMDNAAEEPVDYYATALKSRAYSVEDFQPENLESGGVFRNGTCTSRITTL
Chain of Somatostatin receptor type 2 (P30874 whole entry): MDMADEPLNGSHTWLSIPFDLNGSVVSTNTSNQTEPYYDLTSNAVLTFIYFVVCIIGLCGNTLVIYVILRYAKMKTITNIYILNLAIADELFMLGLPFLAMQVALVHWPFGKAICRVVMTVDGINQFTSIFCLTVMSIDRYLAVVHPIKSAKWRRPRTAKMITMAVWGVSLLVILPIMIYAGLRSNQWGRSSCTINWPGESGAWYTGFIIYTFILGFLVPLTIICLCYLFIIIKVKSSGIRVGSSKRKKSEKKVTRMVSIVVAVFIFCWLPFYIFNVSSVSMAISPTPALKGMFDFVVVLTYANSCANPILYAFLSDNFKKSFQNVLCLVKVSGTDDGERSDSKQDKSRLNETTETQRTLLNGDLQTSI

`CCOc1cc(CN2CCC(Nc3nc4ccccc4o3)CC2)ccc1Cl` gave a Ki [1] of 113 nM.
`CCOc1cc(CN2CCC(Nc3nc4ccccc4o3)CC2)ccc1F` gave a Ki [1] of 194 nM.
`Fc1ccc(Cn2c(NC3CCN(Cc4ccc5c(c4)CCO5)CC3)nc3ccccc32)cc1` showed a Ki [1] of 1630 nM.
`COc1ccc(CN2CCC(Nc3nc4ccccc4s3)CC2)cc1OC` showed a Ki [1] of 1790 nM.
`COc1ccc(CN2CCC(Nc3nc4ccccc4n3Cc3ccc(F)cc3)CC2)cc1` showed a Ki [1] of 3950 nM.
For `Fc1ccc(Cn2c(NC3CCN(CCc4ccccc4)CC3)nc3ccccc32)cc1`, the Ki [1] was 5000 nM.
`Fc1ccc(Cn2c(NC3CCN(CCCc4ccccc4)CC3)nc3ccccc32)cc1` gave a Ki [1] greater than 10000 nM.
`Fc1ccc(Cn2c(NC3CCN(CCc4ccc(OC(F)(F)F)cc4)CC3)nc3ccccc32)cc1` showed a Ki [1] greater than 10000 nM.
`COc1cc(CN2CCC(Nc3nc4ccccc4n3Cc3ccc(F)cc3)CC2)c(OC)c2ccccc12` gave a Ki [1] of 1230 nM.
With `COc1ccc(CN2CCC(Nc3nc4ccccc4o3)CC2)cc1OC1CCCC1` the Ki [1] was 83 nM.
`CCOc1cc(CN2CCC(Nc3nc4ccccc4o3)CC2)ccc1O` gave a Ki [1] of 66 nM.
Work on `CCOc1cc(CN2CCC(Nc3nc4cc(S(N)(=O)=O)ccc4o3)CC2)ccc1Cl` yielded a Ki [1] of 17 nM.
`COc1cc(CN2CCC(Nc3nc4ccccc4s3)CC2)ccc1O` gave a Ki [1] of 5130 nM.
`CCOc1cc(CN2CCC(Nc3nc4cc(S(N)(=O)=O)ccc4o3)CC2)cc(OCC)c1N` showed a Ki [1] of 13 nM, a Ki [2] greater than 10000 nM and a Ki [3] greater than 10000 nM. For the same compound, the Ki [4] was greater than 10000 nM and the Ki [5] was greater than 10000 nM.
`CCCOc1cc(CN2CCC(Nc3nc4ccccc4o3)CC2)ccc1OC` showed a Ki [1] of 293 nM.
`Cc1cccc2c(CN3CCC(Nc4nc5ccccc5n4Cc4ccc(F)cc4)CC3)c[nH]c12` gave a Ki [1] of 1440 nM.
With `COc1ccc(CN2CCC(Nc3nc4ccccc4o3)CC2)cc1OCC(C)C` the Ki [1] was 23 nM.
With `CCOc1cc(CN2CCC(Nc3nc4cc(S(N)(=O)=O)ccc4o3)CC2)ccc1OC` the Ki [1] was 185 nM and the IC50 [6] was 3500 nM.
`Fc1ccc(CCN2CCC(Nc3nc4ccccc4n3Cc3ccc(F)cc3)CC2)cc1` gave a Ki [1] greater than 10000 nM.
For `CCOc1cc(CN2CCC(Nc3nc4ccccc4o3)CC2)ccc1C`, the Ki [1] was 37 nM.
Compound `COc1cc(CN2CCC(Nc3nc4ccccc4s3)CC2)c(OC)c2ccccc12` has a Ki [1] of 683 nM.
Work on `CCOc1cc(CN2CCC(Nc3nc4ccccc4s3)CC2)ccc1OC` yielded a Ki [1] of 326 nM.
With `COc1ccc(CCN2CCC(Nc3nc4ccccc4n3Cc3ccc(F)cc3)CC2)cc1` [ASTEMIZOLE] the Ki [1] was 4070 nM.
With `Fc1ccc(Cn2c(NC3CCN(Cc4ccccc4)CC3)nc3ccccc32)cc1` the Ki [1] was 6120 nM.
Compound `Fc1ccc(Cn2c(NC3CCN(CC4CCc5ccccc5C4)CC3)nc3ccccc32)cc1` (stereo unspecified) has a Ki [1] greater than 10000 nM.
In the case of `COc1cc(CN2CCC(Nc3nc4ccccc4o3)CC2)c(OC)c2ccccc12`, the Ki [1] is reported as 794 nM.
Work on `Fc1ccc(Cn2c(NC3CCN(Cc4ccc5[nH]ccc5c4)CC3)nc3ccccc32)cc1` yielded a Ki [1] of 3950 nM.
With `CCOc1cc(CN2CCC(Nc3nc4ccccc4o3)CC2)ccc1OC` the Ki [1] was 121 nM, the IC50 [7] was 740 nM and the solubility [8] was 130 µg/mL (≈ 341 µM). It also gave a logD [9] of 2.92, a Papp [10] of 4.44 ×10⁻⁶ cm/s and a Ki (Histamine H1 receptor) of 624 nM. For the same compound, the IC50 [6] was less than 100 nM.
Compound `CCOc1cc(CN2CCC(Nc3nc4ccccc4o3)CC2)ccc1OC(F)(F)F` has a Ki [1] of 524 nM.
In the case of `CCOc1cc(CN2CCC(Nc3nc4ccccc4s3)CC2)ccc1O`, the Ki [1] is reported as 149 nM.
